From PubChem BioAssay AID248 (DTP/NCI, 2004) come the findings set out here.

“And” between values parts separate entries of the source, which are not always exact repeats. Identical values can stand only once. Toxic doses and inconclusive results are not listed.

For this test, the system named is L1210 leukemia ip in BDF1 mice, survival T/C. Kind of test: NCI In Vivo Anticancer Drug Screen. Data for tumor model L1210 Leukemia (intraperitoneal) in B6D2F1 (BDF1) mice. Particulars: higher = longer survival. The essentials: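 Transplantable tumor model; survival measured in treated vs vehicle control mice. Value = treated/control.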
Setting [1] is: endpoint: mean survival time, dose: 100.0 mg/kg/injection, schedule: Q04DX003 (ip), vehicle: saline.
[2] abbreviates: endpoint: mean survival time, dose: 100.0 mg/kg/injection, schedule: Q01DX009 (ip), vehicle: Klucel (hydroxypropylcellulose) (HPC).
[3] abbreviates: endpoint: mean survival time, dose: 400.0 mg/kg/injection, schedule: Q01DX009 (ip), vehicle: Klucel (hydroxypropylcellulose) (HPC).
Where [4] appears, read: endpoint: mean survival time, dose: 100.0 mg/kg/injection, schedule: Q04DX003 (ip), vehicle: Klucel (hydroxypropylcellulose) (HPC).
Where [5] appears, read: endpoint: mean survival time, dose: 200.0 mg/kg/injection, schedule: Q04DX003 (ip), vehicle: Klucel (hydroxypropylcellulose) (HPC).
[6] abbreviates: endpoint: mean survival time, dose: 400.0 mg/kg/injection, schedule: Q04DX003 (ip), vehicle: Klucel (hydroxypropylcellulose) (HPC).
The mark [7] stands for this setting: endpoint: mean survival time, dose: 100.0 mg/kg/injection, schedule: Q01DX009 (ip), vehicle: saline with Tween-80.
Setting [8] is: endpoint: mean survival time, dose: 200.0 mg/kg/injection, schedule: Q01DX009 (ip), vehicle: saline with Tween-80.
Where [9] appears, read: endpoint: mean survival time, dose: 100.0 mg/kg/injection, schedule: Q01DX001 (ip), vehicle: saline.
[10] abbreviates: endpoint: mean survival time, dose: 200.0 mg/kg/injection, schedule: Q01DX001 (ip), vehicle: saline.
The mark [11] stands for this setting: endpoint: mean survival time, dose: 400.0 mg/kg/injection, schedule: Q01DX001 (ip), vehicle: saline.
The mark [12] stands for this setting: endpoint: mean survival time, dose: 100.0 mg/kg/injection, schedule: Q04DX003 (ip), vehicle: saline with Tween-80.
Setting [13] is: endpoint: mean survival time, dose: 200.0 mg/kg/injection, schedule: Q04DX003 (ip), vehicle: saline with Tween-80.
Where [14] appears, read: endpoint: mean survival time, dose: 200.0 mg/kg/injection, schedule: Q01DX009 (ip), vehicle: Klucel (hydroxypropylcellulose) (HPC).

As for `Cc1ccccc1C(O)C(Cl)(Cl)Cl` (stereo unspecified), the T/C runs as follows: (endpoint: median survival time, dose: 50.0 mg/kg/injection, schedule: Q04DX003 (ip), vehicle: Klucel (hydroxypropylcellulose) (HPC)) 118 % of control; (endpoint: median survival time, dose: 200.0 mg/kg/injection, schedule: Q04DX003 (ip), vehicle: Klucel (hydroxypropylcellulose) (HPC)) 157 % of control; (endpoint: median survival time, dose: 400.0 mg/kg/injection, schedule: Q04DX003 (ip), vehicle: Klucel (hydroxypropylcellulose) (HPC)) 204 % of control.

Turning to `[C-]1=CC2C=CC1C1[C-]=CC21.[Cl][Pd][Cl]` (stereo unspecified), the T/C (endpoint: mean survival time, dose: 3.13 mg/kg/injection, schedule: Q01DX009 (ip), vehicle: saline with Tween-80) was 103 % of control; the T/C (endpoint: mean survival time, dose: 6.25 mg/kg/injection, schedule: Q01DX009 (ip), vehicle: saline with Tween-80) is 98 % of control; the T/C (endpoint: mean survival time, dose: 12.5 mg/kg/injection, schedule: Q01DX009 (ip), vehicle: saline with Tween-80) was 100 % of control.

Take `CCC[N+]1(C)CCOCC1`: under “endpoint: mean survival time, dose: 75.0 mg/kg/injection, schedule: Q01DX001 (ip), vehicle: saline”, the T/C is 94 % of control and 89 % of control.

In the case of `Cc1cccc(C[As](C)(=O)O)c1`, the T/C (endpoint: mean survival time, dose: 25.0 mg/kg/injection, schedule: Q04DX003 (ip), vehicle: saline) is 94 % of control; the T/C (endpoint: mean survival time, dose: 50.0 mg/kg/injection, schedule: Q04DX003 (ip), vehicle: saline) was 98 % of control; the T/C under setting [1] is 100 % of control and 103 % of control.

Take `Cc1ccc(C)c(NC(=O)Nc2ccc(Nc3ccccc3)cc2)c1`: the T/C runs as follows: under setting [2], 88 % of control; under setting [3], 91 % of control.

Turning to `O=C1/C(=C/c2ccc([N+](=O)[O-])cc2)SC(=S)N1C1OC(CO)C(O)C(O)C1O` (stereo unspecified), the T/C was 95 % of control (endpoint: mean survival time, dose: 25.0 mg/kg/injection, schedule: Q01DX005 (ip), vehicle: water); 95 % of control (endpoint: mean survival time, dose: 50.0 mg/kg/injection, schedule: Q01DX005 (ip), vehicle: water); 93 % of control (endpoint: mean survival time, dose: 100.0 mg/kg/injection, schedule: Q01DX005 (ip), vehicle: water).

As for `N#Cc1ccc(O)c(-c2ccccn2)c1`, the T/C under setting [4] was 94 % of control, the T/C under setting [5] is 93 % of control and the T/C under setting [6] was 94 % of control.

Regarding `O=C(CC1(O)C(=O)Nc2ccccc21)c1ccccc1` (stereo unspecified), the T/C by setting is: under setting [4], 101 % of control; under setting [5], 96 % of control; under setting [6], 96 % of control.

As for `COc1ccc(/C=N/n2c3ccccc3c3ccccc32)cc1OCCCN(C)C`, the T/C reads like this: (endpoint: mean survival time, dose: 3.12 mg/kg/injection, schedule: Q01DX009 (ip), vehicle: saline) 98 % of control; (endpoint: mean survival time, dose: 6.25 mg/kg/injection, schedule: Q01DX009 (ip), vehicle: saline) 102 % of control; (endpoint: mean survival time, dose: 25.0 mg/kg/injection, schedule: Q04DX003 (ip), vehicle: alcohol) 93 % of control; (endpoint: mean survival time, dose: 50.0 mg/kg/injection, schedule: Q04DX003 (ip), vehicle: alcohol) 93 % of control.

As to `CC(=O)OC1CCC2(C)C(=CC=C3C2=CCC2(C)C(=O)CCC32)C1` (stereo unspecified), the T/C (endpoint: mean survival time, dose: 50.0 mg/kg/injection, schedule: Q01DX009 (ip), vehicle: saline with Tween-80) was 87 % of control; the T/C under setting [7] is 90 % of control; the T/C under setting [8] was 90 % of control.

On to `C(=N\N=c1\[nH][nH]/c(=N/N=C/c2ccc(-c3ccccc3)cc2)c2ccccc12)/c1ccc(-c2ccccc2)cc1`, for which the T/C is 110 % of control (endpoint: mean survival time, dose: 50.0 mg/kg/injection, schedule: Q01DX001 (ip), vehicle: saline); 98 % of control under setting [9]; 95 % of control under setting [10]; 98 % of control under setting [11].

In the case of `CC(=O)/C(N=O)=C(/C)O`, the T/C is, setting by setting: (endpoint: mean survival time, dose: 50.0 mg/kg/injection, schedule: Q01DX009 (ip), vehicle: saline) 111 % of control; (endpoint: mean survival time, dose: 100.0 mg/kg/injection, schedule: Q01DX009 (ip), vehicle: saline) 105 % of control; under setting [4], 91 % of control; (endpoint: mean survival time, dose: 200.0 mg/kg/injection, schedule: Q01DX009 (ip), vehicle: saline) 104 % of control; under setting [5], 93 % of control; (endpoint: mean survival time, dose: 400.0 mg/kg/injection, schedule: Q01DX001 (ip), vehicle: saline with Tween-80) 92 % of control. Also, the T/C runs as follows: (endpoint: mean survival time, dose: 400.0 mg/kg/injection, schedule: Q01DX009 (ip), vehicle: saline) 111 % of control; under setting [6], 87 % of control.

Take `O=C(Nc1ccc(F)cc1)c1ccc(C(=O)Nc2ccc(F)cc2)cc1`: the T/C by setting is: (endpoint: mean survival time, dose: 50.0 mg/kg/injection, schedule: Q04DX003 (ip), vehicle: saline with Tween-80) 91 % of control; under setting [9], 100 % of control; under setting [7], 100 % of control; under setting [12], 96 % of control; under setting [10], 96 % of control; under setting [8], 108 % of control. In addition, the T/C reads like this: under setting [13], 96 % of control; under setting [11], 102 % of control; (endpoint: mean survival time, dose: 400.0 mg/kg/injection, schedule: Q01DX009 (ip), vehicle: saline with Tween-80) 94 % of control.

As to `C/C(CC(C)C)=N/Nc1nc(C)cc(=O)[nH]1`, the T/C was 92 % of control under setting [2]; 105 % of control under setting [4]; 97 % of control under setting [14]; 100 % of control under setting [5]; 92 % of control under setting [6].

With `COc1ccc(OC(=O)Nc2ccc([N+](=O)[O-])cc2OC)cc1`, the T/C was 96 % of control under setting [2], 95 % of control under setting [14] and 101 % of control under setting [3].

On to `O=c1oc2c3ccccc3c3ccccc3c2o1`, for which the T/C runs as follows: (endpoint: mean survival time, dose: 25.0 mg/kg/injection, schedule: Q01DX009 (ip), vehicle: Klucel (hydroxypropylcellulose) (HPC)) 113 % of control; (endpoint: mean survival time, dose: 50.0 mg/kg/injection, schedule: Q01DX009 (ip), vehicle: Klucel (hydroxypropylcellulose) (HPC)) 103 % of control; under setting [2], 94 % of control.

`CCCC(C)c1ccccc1O` (stereo unspecified): the T/C under setting [12] is 95 % of control.

Consider `[I][Pb]([c]1ccccc1)([c]1ccccc1)[c]1ccccc1`, for which the T/C runs as follows: (endpoint: mean survival time, dose: 12.5 mg/kg/injection, schedule: Q04DX003 (ip), vehicle: Klucel (hydroxypropylcellulose) (HPC)) 98 % of control; (endpoint: mean survival time, dose: 25.0 mg/kg/injection, schedule: Q04DX003 (ip), vehicle: Klucel (hydroxypropylcellulose) (HPC)) 94 % of control.

Consider `Nc1cccc(C(=O)Nc2ccc(S(=O)(=O)F)cc2)c1`, for which the T/C was 107 % of control under setting [9], 106 % of control under setting [10] and 112 % of control under setting [11].

In the case of `O=C(OCC1OC(n2c(=O)[nH]c3scnc3c2=O)C(OC(=O)c2ccccc2)C1OC(=O)c1ccccc1)c1ccccc1` (stereo unspecified), the T/C reads like this: (endpoint: mean survival time, dose: 100.0 mg/kg/injection, schedule: Q01DX005 (ip), vehicle: saline) 93 % of control; (endpoint: mean survival time, dose: 200.0 mg/kg/injection, schedule: Q01DX005 (ip), vehicle: saline) 86 % of control.

As to `COC(=O)c1ccc(OS(=O)(=O)c2cccc([N+](=O)[O-])c2)cc1`, the T/C under setting [2] is 96 % of control; the T/C under setting [4] was 90 % of control; the T/C under setting [14] was 98 % of control; the T/C under setting [5] is 95 % of control; the T/C under setting [3] was 118 % of control; the T/C under setting [6] was 90 % of control.

Turning to `Cc1ccc(C(=O)N/N=C/c2ccccc2Cl)cc1`, the T/C by setting is: (endpoint: mean survival time, dose: 100.0 mg/kg/injection, schedule: Q04DX002 (ip), vehicle: Klucel (hydroxypropylcellulose) (HPC)) 101 % of control; (endpoint: mean survival time, dose: 200.0 mg/kg/injection, schedule: Q04DX002 (ip), vehicle: Klucel (hydroxypropylcellulose) (HPC)) 93 % of control; (endpoint: mean survival time, dose: 400.0 mg/kg/injection, schedule: Q04DX002 (ip), vehicle: Klucel (hydroxypropylcellulose) (HPC)) 104 % of control.

In the case of `C[N+](C)(C)CCO`, the T/C by setting is: (endpoint: mean survival time, dose: 50.0 mg/kg/injection, schedule: Q04DX003 (ip), vehicle: none) 99 % of control and 105 % of control; (endpoint: mean survival time, dose: 100.0 mg/kg/injection, schedule: Q04DX003 (ip), vehicle: none) 97 % of control and 102 % of control; under setting [1], 95 % of control; (endpoint: mean survival time, dose: 200.0 mg/kg/injection, schedule: Q04DX003 (ip), vehicle: none) 96 % of control and 99 % of control; (endpoint: mean survival time, dose: 200.0 mg/kg/injection, schedule: Q04DX003 (ip), vehicle: saline) 96 % of control; (endpoint: mean survival time, dose: 400.0 mg/kg/injection, schedule: Q04DX003 (ip), vehicle: saline) 106 % of control.

With `Cc1ccc(S(=O)(=O)OCC2OCC(O)C(O)C2O)cc1` (stereo unspecified), the T/C by setting is: under setting [12], 86 % of control; under setting [13], 86 % of control; (endpoint: mean survival time, dose: 400.0 mg/kg/injection, schedule: Q04DX003 (ip), vehicle: saline with Tween-80) 86 % of control.
